From US20160271090A1, “FRATAXIN ENHANCER” (TOKYO UNIVERSITY OF AGRICULTURE, priority 2013, published 2016)

Test system: frataxin protein in human normal fibroblast strain WI-38
Test: Western blot of frataxin protein in WI-38 cells cultured with ALA
Assay type: cell-based
Details: ALA 2 mM for 2 hours in DMEM without FBS, then 24 hours in DMEM with 10% FBS, compared to Sample 2 (medium without ALA)
Protocol: • (i) Human normal fibroblast strain WI-38 was cultured in Dulbecco's modified Eagle medium (DMEM) comprising 10% fetal bovine serum (FBS) under 5% CO2. (ii) 5-Aminolevulinic acid (ALA) was added at a final concentration of 2 mM to DMEM without FBS, and cells of (i) were cultured in said medium at 37° C. for 2 hours to allow ALA to be incorporated. (iii) Then, the cells were transferred to DMEM containing 10% FBS and cultured at 37° C. for 24 hours. (iv) The cells were collected by trypsin treatment, washed with phosphate buffered saline (PBS), and then suspended in SDS sample buffer (50 mM Tris-HCl, pH6.8, 2% SDS, 2.5%-mercaptoethanol, 10% glycerol, and 0.01% bromophenol blue), and heated at 100° C. for 5 minutes to allow lysis. […] In this Example, the said cell lysate is referred to as “Sample 2.” Samples 1 and 2 were subjected to 12% SDS-polyacrylamide electrophoresis, and Western blot analysis employing an anti-human frataxin antibody (from Santa Cruz Biotechnology, cat. #sc-25820) and an HRP-labeled anti-rabbit IgG secondary antibody (from GE Healthcare, cat. #N[MUT]) was performed by conventional means. […]

NCC(=O)CCC(=O)O [ALA, 5-aminolevulinic acid]
amount of frataxin protein (Western blot, FIG. 1): clear increase
